Patent US20220089575A1, “FARNESOID X RECEPTOR AGONISTS AND USES THEREOF” (Metacrine, Inc., priority 2017, published 2022)

molecular target: T1, hFXR (Homo sapiens, UniProt Q96RI1); experiment: In Vitro FXR Assay (TK): TK-ECRE-luc reporter in transfected CV-1 cells; assay type: cell-based; conditions: 18 hrs, luminescence, maximum efficacy of <25% of the Fexarmine control classified as '+'
T1 construct: expressed in transfected cells; host or cells: CV-1 cells
T1 sequence (Q96RI1 1-486): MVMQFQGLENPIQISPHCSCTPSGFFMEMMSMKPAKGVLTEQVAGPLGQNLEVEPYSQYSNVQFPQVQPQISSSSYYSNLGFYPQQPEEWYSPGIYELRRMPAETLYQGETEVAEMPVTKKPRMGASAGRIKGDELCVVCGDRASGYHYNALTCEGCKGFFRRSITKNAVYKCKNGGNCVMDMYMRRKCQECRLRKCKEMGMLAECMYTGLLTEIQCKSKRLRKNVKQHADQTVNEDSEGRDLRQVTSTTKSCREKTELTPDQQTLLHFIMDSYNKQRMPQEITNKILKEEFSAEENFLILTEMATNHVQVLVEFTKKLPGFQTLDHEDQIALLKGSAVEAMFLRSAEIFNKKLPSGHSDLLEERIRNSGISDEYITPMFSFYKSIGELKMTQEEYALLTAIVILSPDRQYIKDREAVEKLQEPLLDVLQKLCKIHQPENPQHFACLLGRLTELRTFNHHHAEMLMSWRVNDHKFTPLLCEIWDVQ
T1 sequence (P19793 1-462 partner): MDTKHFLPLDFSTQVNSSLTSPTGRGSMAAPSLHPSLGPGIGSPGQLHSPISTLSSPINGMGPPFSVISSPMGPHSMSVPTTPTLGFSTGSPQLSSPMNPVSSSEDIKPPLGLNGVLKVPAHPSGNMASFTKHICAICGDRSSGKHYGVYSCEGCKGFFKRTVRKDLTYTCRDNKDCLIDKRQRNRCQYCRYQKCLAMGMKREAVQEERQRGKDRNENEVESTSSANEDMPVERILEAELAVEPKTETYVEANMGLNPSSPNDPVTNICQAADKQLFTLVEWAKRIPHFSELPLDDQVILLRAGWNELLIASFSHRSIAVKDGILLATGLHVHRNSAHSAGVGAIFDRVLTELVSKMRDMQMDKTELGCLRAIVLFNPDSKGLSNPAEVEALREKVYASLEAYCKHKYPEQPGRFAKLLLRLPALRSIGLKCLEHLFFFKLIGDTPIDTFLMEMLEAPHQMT
Procedure, shortened: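 CV-1 cells transiently co-transfected with hFXR, hRXR, TK-ECRE-luc and pCMX-YFP plasmids in charcoal-stripped serum medium. Serially diluted compounds added, cells incubated 18 h at 37° C, then lysed and luminescence read.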

EC50, ≤ 250 nM:
COc1ccc([C@H]2CC[C@H](CN(c3cccc(-c4cnn(C(C)C)c4)c3)C(=O)[C@H]3CC[C@H](OC(=O)N4CC(S(C)(=O)=O)C4)CC3)CC2)nc1C [Compound 6.42, trans-4-((3-(1-Isopropyl-1H-pyrazol-4-yl)phenyl)((trans-4-(5-methoxy-6-methylpyridin-2-yl)cyclohexyl)methyl)carbamoyl)cyclohexyl 3-(methylsulfonyl)azetidine-1-carboxylate]
COc1ccc([C@H]2CC[C@H](CN(c3cccc(-c4cnn(C(C)C)c4)c3)C(=O)[C@H]3CC[C@H](OC(=O)N4CCOCC4)CC3)CC2)nc1C [Compound 6.43, trans-4-((3-(1-Isopropyl-1H-pyrazol-4-yl)phenyl)((trans-4-(5-methoxy-6-methylpyridin-2-yl)cyclohexyl)methyl)carbamoyl)cyclohexylmorpholine-4-carboxylate]
COc1ccc([C@H]2CC[C@H](CN(c3cccc(-c4cnn(C(C)C)c4)c3)C(=O)[C@H]3CC[C@H](OC(=O)N4CCN(C)CC4)CC3)CC2)nc1C [Compound 6.44, trans-4-((3-(1-Isopropyl-1H-pyrazol-4-yl)phenyl)((trans-4-(5-methoxy-6-methylpyridin-2-yl)cyclohexyl)methyl)carbamoyl)cyclohexyl 4-methylpiperazine-1-carboxylate]
COc1ccc(C23CCC(CN(c4cccc(-c5coc(C6CC6)n5)c4)C(=O)[C@H]4CC[C@H](OC(=O)NCCO)CC4)(CC2)CC3)cc1C [Compound 6.45, 4-((3-(2-Cyclopropyloxazol-4-yl)phenyl) ((4-(4-methoxy-3-methylphenyl)bicyclo [2.2.2]octan-1-yl)methyl)carbamoyl) cyclohexyl trans-(2-hydroxyethyl) carbamate]
COc1ccc([C@H]2CC[C@H](CN(c3cccc(-c4coc(C5CC5)n4)c3)C(=O)[C@H]3CC[C@H](OC(=O)NCCO)CC3)CC2)cc1C [Compound 6.46, trans-4-((3-(2-Cyclopropyloxazol-4-yl)phenyl)((trans-4-(4-methoxy-3-methylphenyl)cyclohexyl)methyl)carbamoyl)cyclohexyl (2-hydroxyethyl) carbamate]
COc1ccc([C@H]2CC[C@H](CN(c3cccc(-c4coc(C(C)C)n4)c3)C(=O)[C@H]3CC[C@H](OC(=O)NCCO)CC3)CC2)cc1C [Compound 6.47, trans-4-((3-(2-Isopropyloxazol-4-yl)phenyl)((trans-4-(4-methoxy-3-methylphenyl)cyclohexyl)methyl)carbamoyl)cyclohexyl (2-hydroxyethyl) carbamate]
COc1ccc([C@H]2CC[C@H](CN(c3cccc(-c4coc(C(C)C)n4)c3)C(=O)[C@H]3CC[C@H](OC(=O)NCCO)CC3)CC2)nc1C [Compound 6.48, trans-4-((3-(2-Isopropyloxazol-4-yl)phenyl)((trans-4-(5-methoxy-6-methylpyridin-2-yl)cyclohexyl)methyl)carbamoyl)cyclohexyl (2-hydroxyethyl)carbamate]
COc1ccc([C@H]2CC[C@H](CN(c3cccc(-c4coc(C(C)C)n4)c3)C(=O)[C@H]3CC[C@H](OC(=O)NCCCO)CC3)CC2)nc1C [Compound 6.49, trans-4-((3-(2-Isopropyloxazol-4-yl)phenyl)((trans-4-(5-methoxy-6-methylpyridin-2-yl)cyclohexyl)methyl)carbamoyl)cyclohexyl (3-hydroxypropyl)carbamate]
COc1ccc([C@H]2CC[C@H](CN(c3cccc(-c4coc(C5CC5)n4)c3)C(=O)[C@H]3CC[C@H](OC(=O)NCCO)CC3)CC2)nc1C [Compound 6.50, trans-4-((3-(2-Cyclopropyloxazol-4-yl)phenyl)((trans-4-(5-methoxy-6-methylpyridin-2-yl)cyclohexyl)methyl)carbamoyl)cyclohexyl (2-hydroxyethyl)carbamate]
COc1ccc([C@H]2CC[C@H](CN(c3cccc(-c4coc(C5CC5)n4)c3)C(=O)[C@H]3CC[C@H](OC(=O)NCCCO)CC3)CC2)nc1C [Compound 6.51, trans-4-((3-(2-Cyclopropyloxazol-4-yl)phenyl)((trans-4-(5-methoxy-6-methylpyridin-2-yl)cyclohexyl)methyl)carbamoyl)cyclohexyl (3-hydroxypropyl)carbamate]
COc1ccc([C@H]2CC[C@H](CN(c3cc(-c4coc(C5CC5)n4)ccn3)C(=O)[C@H]3CC[C@H](OC(=O)NCCO)CC3)CC2)cc1C [Compound 6.52, trans-4-((4-(2-Cyclopropyloxazol-4-yl)pyridine-2-yl)((trans-4-(4-methoxy-3-methylphenyl)cyclohexyl)methyl)carbamoyl)cyclohexyl (2-hydroxyethyl) carbamate]
COc1ccc([C@H]2CC[C@H](CN(c3cccc(-c4coc(C5CC5)n4)c3)C(=O)[C@H]3CC[C@H](OC(=O)NCCO)CC3)CC2)cc1C#N [Compound 6.53, trans-4-(((trans-4-(3-Cyano-4-methoxyphenyl)cyclohexyl)methyl)(3-(2-cyclopropyloxazol-4-yl)phenyl)carbamoyl)cyclohexyl (2-hydroxyethyl)carbamate]
COc1ccc([C@H]2CC[C@H](CN(c3cc(-c4coc(C5CC5)n4)ccn3)C(=O)[C@H]3CC[C@H](OC(=O)NCCO)CC3)CC2)cc1C#N [Compound 6.54, trans-4-(((trans-4-(3-Cyano-4-methoxyphenyl)cyclohexyl)methyl)(4-(2-cyclopropyloxazol-4-yl)pyridine-2-yl)carbamoyl)cyclohexyl (2-hydroxyethyl)carbamate]
COc1ccc([C@H]2CC[C@H](CN(c3cccc(-c4coc(C5CC5)n4)c3)C(=O)[C@H]3CC[C@H](OC(=O)NCCO)CC3)CC2)nc1C#N [Compound 6.55, trans-4-(((trans-4-(6-Cyano-5-methoxypyridin-2-yl)cyclohexyl)methyl)(3-(2-cyclopropyloxazol-4-yl)phenyl)carbamoyl)cyclohexyl (2-hydroxyethyl)carbamate]
COCCNC(=O)O[C@H]1CC[C@H](C(=O)N(C[C@H]2CC[C@H](c3ccc(OC)c(C)n3)CC2)c2cc(-c3coc(C4CC4)n3)ccn2)CC1 [Compound 6.56, trans-4-((4-(2-Cyclopropyloxazol-4-yl)pyridine-2-yl)((trans-4-(5-methoxy-6-methylpyridin-2-yl)cyclohexyl)methyl)carbamoyl)cyclohexyl (2-methoxyethyl) carbamate]
COc1ccc([C@H]2CC[C@H](CN(c3cc(-c4coc(C5CC5)n4)ccn3)C(=O)[C@H]3CC[C@H](OC(=O)NC4CC4)CC3)CC2)nc1C [Compound 6.57, trans-4-((4-(2-Cyclopropyloxazol-4-yl)pyridine-2-yl)((trans-4-(5-methoxy-6-methylpyridin-2-yl)cyclohexyl)methyl)carbamoyl)cyclohexyl cyclopropylcarbamate]
COc1ccc([C@H]2CC[C@H](CN(c3cc(-c4coc(C5CC5)n4)ccn3)C(=O)[C@H]3CC[C@H](OC(=O)NC(C)C)CC3)CC2)nc1C [Compound 6.58, trans-4-((4-(2-Cyclopropyloxazol-4-yl)pyridine-2-yl)((trans-4-(5-methoxy-6-methylpyridin-2-yl)cyclohexyl)methyl)carbamoyl)cyclohexyl isopropylcarbamate]
COc1ccc([C@H]2CC[C@H](CN(c3cc(-c4coc(C5CC5)n4)ccn3)C(=O)[C@H]3CC[C@H](OC(=O)N4CCOCC4)CC3)CC2)nc1C [Compound 6.59, trans-4-((4-(2-Cyclopropyloxazol-4-yl)pyridine-2-yl)((trans-4-(5-methoxy-6-methylpyridin-2-yl)cyclohexyl)methyl)carbamoyl)cyclohexyl morpholine-4-carboxylate]
COc1ccc([C@H]2CC[C@H](CN(c3cc(-c4coc(C5CC5)n4)ccn3)C(=O)[C@H]3CC[C@H](OC(=O)NC4COC4)CC3)CC2)nc1C [Compound 6.60, trans-4-((4-(2-Cyclopropyloxazol-4-yl)pyridine-2-yl)((trans-4-(5-methoxy-6-methylpyridin-2-yl)cyclohexyl)methyl)carbamoyl)cyclohexyl oxetan-3-ylcarbamate]
COc1ccc([C@H]2CC[C@H](CN(c3cc(-c4coc(C5CC5)n4)ccn3)C(=O)[C@H]3CC[C@H](OC(=O)N4CC(S(C)(=O)=O)C4)CC3)CC2)nc1C [Compound 6.61]
